The numbers were not newly measured in patent US11529304B2, “Method for dyeing keratin material by means of a dyeing agent and an acidic posttreatment agent” (Henkel AG & Co. KGaA, priority 2018, dated 2022), which cites them from elsewhere.

The conditions of this data set: for solubility in water: 25° C.

Take `Nc1cc(S(=O)(=O)[O-])cc2cc(S(=O)(=O)[O-])c(N=Nc3ccccc3)c(O)c12.[Na+].[Na+]` [Acid Red 33, diantrium salt of 5-amino-4-hydroxy-3-(phenylazo)-naphthalene-2,7-disulphonate]: the solubility in water is 2.5 mg/mL. On to “mixture of the sodium salts of mono- and sisulfonic acids of 2-(2-quinolyl)-1H-indene-1,3(2H)-dione [Acid Yellow 3]”, for which the solubility in water was 20 mg/mL. For the molecule `O=S(=O)([O-])c1ccc(N=Nc2c(O)ccc3ccccc23)cc1.[Na+]` [Acid Orange 7, sodium salt of 4-[(2-hydroxy-1-naphthyl)azo]benzene sulphonate], the solubility in water entry is “more than 7 g/L”.

Consider `O=C([O-])C1=NN(c2ccc(S(=O)(=O)[O-])cc2)C(=O)C1N=Nc1ccc(S(=O)(=O)[O-])cc1.[Na+].[Na+].[Na+]` (centres unmarked) [Acid Yellow 23], for which the “solubility in water (in words)” value (at 25° C.) is given as “highly soluble”. Take `O=C([O-])c1c(Cl)c(Cl)c(Cl)c(Cl)c1-c1c2c(Br)cc(=O)c(Br)c-2oc2c(Br)c(O)cc(Br)c12.O=C([O-])c1c(Cl)c(Cl)c(Cl)c(Cl)c1-c1c2c(Br)cc(=O)c(Br)c-2oc2c(Br)c(O)cc(Br)c12.[Na+].[Na+]` [Acid Red 92, disodium salt of 3,4,5,6-tetrachloro-2-(1,4,5,8-tetrabromo-6-hydroxy-3-oxoxanthen-9-yl)benzoic acid]: the solubility in water entry was “greater than 10 g/L”.
